Experimental data: PubChem BioAssay (NCI)
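Tested at 5 concentrations; 48 h exposure; 96-well plates; endpoints linearly interpolated, else capped at highest concentration. GI50: concentration for 50% inhibition of growth. TGI denotes the concentration required for complete inhibition of growth.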

Columns and labels:
Assay in all cases: NCI tumour cell line growth inhibition, 48 h
HT29 colon = system: HT29 colon
ACHN renal = system: ACHN renal
HOP-62 NSCLC = system: HOP-62 NSCLC
HCT-116 colon = system: HCT-116 colon
SW-620 colon = system: SW-620 colon
EKVX NSCLC = system: EKVX NSCLC
CCRF-CEM leukemia = system: CCRF-CEM leukemia
HCC-2998 colon = system: HCC-2998 colon
UACC-257 melanoma = system: UACC-257 melanoma

SMILES	TGI (HT29 colon) [µM]	TGI (ACHN renal) [µM]	TGI (HOP-62 NSCLC) [µM]	TGI (HCT-116 colon) [µM]	TGI (SW-620 colon) [µM]	TGI (EKVX NSCLC) [µM]	TGI (CCRF-CEM leukemia) [µM]	TGI (HCC-2998 colon) [µM]	TGI (UACC-257 melanoma) [µM]	GI50 (HT29 colon) [µM]	GI50 (ACHN renal) [µM]	GI50 (HOP-62 NSCLC) [µM]	GI50 (HCT-116 colon) [µM]	GI50 (SW-620 colon) [µM]	GI50 (HCC-2998 colon) [µM]	GI50 (UACC-257 melanoma) [µM]
CCCCCCCCCCCCCCCC(=O)N(CCCCCCCCCCC(=O)O)CC(O)C(O)C(OC1OC(CO)C(O)C(O)C1O)C(O)CO (centres undefined)	42.8	> 100	75.8	> 100	52.5	> 100	45.7	49.5	55.7	–	–	–	–	–	–	–
O=C(Cc1ccccc1)Nn1c(-c2ccccc2)nc2ccccc2c1=O	> 100	> 100	> 100	> 100	> 100	> 100	> 100	> 100	> 100	–	–	–	–	–	–	–
CCOC(=O)C(NC(=O)c1ccccc1)(N1CCOCC1)C(F)(F)F (centres undefined)	> 100	> 100	> 100	> 100	> 100	> 100	> 100	> 100	> 100	–	–	–	–	–	–	–
CC[C@H]1C=CCC[C@@]2(C[C@@H]3CC[C@H]4[C@@H](C(=O)OCCCCCCCCCCCCCCCC(=O)N(CCCN)C[C@@H](O)CCN)[C@@]5(CCC[C@@H](C)O5)NC(=[N+]34)N2)O1	2.96	> 10	3.06	2.96	6.99	3.25	–	3.12	3.41	–	–	–	–	–	–	–
O=C(O)CC1NCc2cc3ccccc3nc21 (centres undefined)	> 100	> 100	> 100	> 100	> 100	> 100	> 100	> 100	> 100	–	–	–	–	–	–	–
FC(F)(F)c1cccc(-c2nc3ccccc3c3c2[C@@]2(N4CCCC4)CCCC[C@@H]32)c1	> 100	–	> 100	> 100	> 100	> 100	87.9	–	> 100	–	–	–	–	–	–	–
Nc1nc(N)c2cc(NCc3ccc(Cl)c(Cl)c3)ccc2n1	2.05	2.58	3.01	1.58	1.59	–	–	2.51	3.22	0.813	1.31	1.63	0.391	0.431	1.16	1.71
N#Cc1c(-c2ccccc2)c(N=Nc2ccc(Cl)cc2)c(=O)n2c1[nH]c1ccccc12	–	> 100	> 100	> 100	> 100	> 100	> 100	> 100	> 100	–	–	–	–	–	–	–
CN(C)C(=O)OC(Cn1cncn1)(Cn1cncn1)c1ccc(Cl)cc1Cl	> 100	–	> 100	–	> 100	> 100	> 100	> 100	> 100	–	–	–	–	–	–	–
COC(C)(C)C1(O)CCC(C)CC1=O (centres undefined)	> 100	> 100	> 100	> 100	> 100	> 100	–	> 100	> 100	–	–	–	–	–	–	–
C=CCO[C@]1(CC=C)C(=O)C(=O)OC1C1COC(C)(C)O1 (some centres undefined)	37.2	31.1	> 100	74.7	35.4	> 100	89.5	> 100	> 100	–	–	–	–	–	–	–
COC(=O)[C@H](Cc1c[nH]c2ccccc12)NC(=O)c1ccc(CNC(=O)/C=C/c2cccc(Oc3ccccc3)c2)cc1	> 100	> 100	> 100	> 100	> 100	> 100	> 100	> 100	40.3	–	–	–	–	–	–	–
COc1cc2c(=O)cnoc2cc1O	> 100	> 100	–	–	> 100	> 100	> 100	> 100	> 100	–	–	–	–	–	–	–
C/C=C/C1OC(O)(C(C)C(O)[C@H](C)C2OC(=O)/C(OC)=C/C(C)=C/[C@@H](C)[C@@H](O)[C@@H](C)C(O)C(C)C/C(C)=C/C=C/C2OC)C[C@@H](OC2CC(O)C(OC(N)=O)C(C)O2)C1C (some centres undefined)	1.54	12.1	< 0.01	1.42	1.01	8.37	–	< 0.01	< 0.01	–	–	–	–	–	–	–
O=C(NCc1cccc2ccccc12)N/N=C\c1ccc(Cl)cc1	> 100	> 100	> 100	> 100	> 100	> 100	> 100	> 100	> 100	–	–	–	–	–	–	–
COC(=O)c1cnc(Cl)cn1	> 100	> 100	> 100	> 100	> 100	> 100	> 100	–	> 100	–	–	–	–	–	–	–
O=[N+]([O-])c1ccc(C=NCC2CCCN3CCCCC23)cc1 (centres undefined)	34.9	> 100	> 100	> 100	> 100	> 100	> 100	> 100	> 100	–	–	–	–	–	–	–
COc1ccc(N2C=Nn3c(nc4sc5c(c4c3=O)CCCC5)C2)cc1	> 100	53.2	13.5	> 100	> 100	> 100	> 100	> 100	> 100	–	–	–	–	–	–	–
Cc1noc(NC2=CC(=O)C(=O)c3ccccc32)c1C	88	> 100	> 100	> 100	–	> 100	–	–	64	–	–	–	–	–	–	–
COc1c(O)cc2c(c1O)C(=O)/C(=C/c1ccc(O)cc1)CO2	41.1	48.3	76.3	–	83.4	71.9	65.3	–	> 100	–	–	–	–	–	–	–
COc1ccc(C2C3COc4ccccc4C3=NN2c2ccccc2)cc1 (centres undefined)	> 100	> 100	> 100	> 100	> 100	> 100	> 100	–	> 100	–	–	–	–	–	–	–
Cc1ccc(/C(O)=C/c2nc3ccccc3s/c2=N/CS(=O)(=O)c2ccc(C)cc2)cc1	> 10	> 10	> 10	> 10	> 10	–	> 10	> 10	> 10	–	–	–	–	–	–	–
Oc1ccc(Cl)cc1CN1CCN(Cc2cc(Cl)ccc2O)C1	13	4.25	2.79	1.34	10.5	6.09	> 100	2.97	5.48	–	–	–	–	–	–	–
